Measured values published in patent publication EP0626016B1, “[…] […]” (BRITISH TECHNOLOGY GROUP LIMITED, priority 1992, dated 1993).
Where two headings read alike, the source gives them in different places.

Target: T1, HRP Type VIA (Armoracia rusticana, UniProt P00433)
T1 sequence (P00433 31-338): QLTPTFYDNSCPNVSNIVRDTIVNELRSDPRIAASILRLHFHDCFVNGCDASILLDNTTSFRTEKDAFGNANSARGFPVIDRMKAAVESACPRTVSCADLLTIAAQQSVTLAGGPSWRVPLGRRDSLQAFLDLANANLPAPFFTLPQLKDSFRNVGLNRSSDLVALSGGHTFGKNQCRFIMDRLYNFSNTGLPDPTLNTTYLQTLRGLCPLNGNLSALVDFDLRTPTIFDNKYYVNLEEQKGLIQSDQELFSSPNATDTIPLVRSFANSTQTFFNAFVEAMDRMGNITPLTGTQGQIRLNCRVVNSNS
Details: for (d) Signal: Background: ratio (control = with no enhancer): control value in brackets not reported

| (a) Decrease in background (without HRP with test cpd.) (0.01 mg/ml, 10µl test compound) | (b) Increase in signal (with HRP, with test cpd.) (0.01 mg/ml, 10µl test compound) | (c) Increase in signal: background ratio (0.01 mg/ml, 10µl test compound) | (d) Signal: Background: ratio (control = with no enhancer) (0.01 mg/ml, 10µl test compound) | (a) Decrease in background (without HRP with test cpd.) (0.1 mg/ml, 10µl test compound) | (b) Increase in signal (with HRP, with test cpd.) (0.1 mg/ml, 10µl test compound) | (c) Increase in signal: background ratio (0.1 mg/ml, 10µl test compound) | (d) Signal: Background: ratio (control = with no enhancer) (0.1 mg/ml, 10µl test compound) | (a) Decrease in background (without HRP with test cpd.) (1 mg/ml, 10µl test compound) | (b) Increase in signal (with HRP, with test cpd.) (1 mg/ml, 10µl test compound) | (c) Increase in signal: background ratio (1 mg/ml, 10µl test compound) | (d) Signal: Background: ratio (control = with no enhancer) (1 mg/ml, 10µl test compound) | Compound | (a) Decrease in background (without HRP with test cpd.) | (b) Increase in signal (with HRP, with test cpd.) | (c) Increase in signal: background ratio |
| --- | --- | --- | --- | --- | --- | --- | --- | --- | --- | --- | --- | --- | --- | --- | --- |
| Y | N | N (N = no) |  | Y | N | N (N = no) | 3.1 (2.7) | Y | N | N (N = no) |  | OB(O)c1cc(Cl)ccc1Cl [Compound 1023, 2,5-dichlorophenylboronic acid] |  |  |  |
| Y | N | N (N = no) |  | Y | N | N (N = no) | 3.3 (2.9) | Y | N | N (N = no) |  | CSCc1ccccc1B(O)O [Compound 1050, 2-(methylthiomethyl)phenylboronic acid] |  |  |  |
| Y | N | N (N = no) | 2.1 (2.0) | Y | N | N (N = no) |  | Y | N | N (N = no) |  | OB(O)c1cc(Cl)cc(Cl)c1 [Compound 1025, 3,5-dichlorophenylboronic acid] |  |  |  |
| Y | N | N (N = no) |  | Y | N | N (N = no) |  | Y | N | N (N = no) |  | c1ccc2c(OB(Oc3cccc4ccccc34)c3cccc4ccccc34)cccc2c1 [Compound 1047, di-(1-naphthoxy)-l-naphthylborane] |  |  |  |

More lines, now with the values behind:

| Compound | (a) Decrease in background (without HRP with test cpd.) (0.01 mg/ml, 10µl test compound) | (b) Increase in signal (with HRP, with test cpd.) (0.01 mg/ml, 10µl test compound) | (c) Increase in signal: background ratio (0.01 mg/ml, 10µl test compound) | (d) Signal: Background: ratio (control = with no enhancer) (0.01 mg/ml, 10µl test compound) | (a) Decrease in background (without HRP with test cpd.) (0.1 mg/ml, 10µl test compound) | (b) Increase in signal (with HRP, with test cpd.) (0.1 mg/ml, 10µl test compound) | (c) Increase in signal: background ratio (0.1 mg/ml, 10µl test compound) | (d) Signal: Background: ratio (control = with no enhancer) (0.1 mg/ml, 10µl test compound) | (a) Decrease in background (without HRP with test cpd.) (1 mg/ml, 10µl test compound) | (b) Increase in signal (with HRP, with test cpd.) (1 mg/ml, 10µl test compound) | (c) Increase in signal: background ratio (1 mg/ml, 10µl test compound) | (d) Signal: Background: ratio (control = with no enhancer) (1 mg/ml, 10µl test compound) | (a) Decrease in background (without HRP with test cpd.) | (b) Increase in signal (with HRP, with test cpd.) | (c) Increase in signal: background ratio |
| --- | --- | --- | --- | --- | --- | --- | --- | --- | --- | --- | --- | --- | --- | --- | --- |
| OB(O)c1ccc(-c2ccc(B(O)O)cc2)cc1 [Compound 1037, 4,4'-bis(phenylboronic acid)] | Y | Y | Y (Column (c) shows whether there was an increase in the signal:background ratio by over 25% of the control value (Y = yes) | 35.5 (1.9) | Y | Y | Y (Column (c) shows whether there was an increase in the signal:background ratio by over 25% of the control value (Y = yes) | 503.3 (2.9) | Y | N | N (N = no) |  |  |  |  |
| OB(O)c1ccccc1-c1ccccc1 [Compound 1004, 2-biphenylboronic acid] | Y | N | N (N = no) | 1.9 | Y | N | N (N = no) | 2.2 | Y | N | N (N = no) | 1.7 (2.3) |  |  |  |
| COc1ccc(Br)cc1B(O)O [Compound 1003, 5-bromo-2-methoxybenzeneboronic acid] | Y | N | Y (Column (c) shows whether there was an increase in the signal:background ratio by over 25% of the control value (Y = yes) | 8.6 | Y | N | Y (Column (c) shows whether there was an increase in the signal:background ratio by over 25% of the control value (Y = yes) | 12.1 | Y | N | N (N = no) | 2.6 (2.3) |  |  |  |
| CC(C)COB(c1ccccc1)c1ccccc1 [Compound 1019, diphenylisobutoxyborane] | Y | N | Y (Column (c) shows whether there was an increase in the signal:background ratio by over 25% of the control value (Y = yes) | 3.2 (2.0) | Y | N | N (N = no) | 3.0 (2.9) | Y | N | N (N = no) |  |  |  |  |
| boraxarophenanthrene [Compound 1014] | Y | N | N (N = no) | 2.3 | Y | N | N (N = no) | 1.6 | Y | N | N (N = no) | 1.8 (2.5) |  |  |  |
| OB(O)c1ccc(Nc2ccc(Cl)cc2)cc1 [Compound 1033, 4-(4'-chloroanilino)phenylboronic acid] | Y | Y | Y (Column (c) shows whether there was an increase in the signal:background ratio by over 25% of the control value (Y = yes) | 4.1 (1.8) | Y | Y | Y (Column (c) shows whether there was an increase in the signal:background ratio by over 25% of the control value (Y = yes) | 67.7 (2.8) | Y | Y | Y (Column (c) shows whether there was an increase in the signal:background ratio by over 25% of the control value (Y = yes) | 173.9 (4.5) |  |  |  |
| Cc1ccccc1B(O)O [Compound 1009, 2-tolueneboronic acid] | Y | N | N (N = no) | 1.9 | Y | N | Y (Column (c) shows whether there was an increase in the signal:background ratio by over 25% of the control value (Y = yes) | 2.5 | Y | N | N (N = no) | 0.6 (1.8) |  |  |  |
| OCC(CO)(CO)COB(O)O [Compound 1017, pentaerythritol borate] | Y | N | N (N = no) | 1.8 | Y | Y | Y (Column (c) shows whether there was an increase in the signal:background ratio by over 25% of the control value (Y = yes) | 2.5 | Y | N | N (N = no) | 1.8 (1.8) |  |  |  |
| OB(O)c1ccc(Cl)cc1 [Compound 1029, 4-chlorophenylboronic acid] |  |  |  |  |  |  |  |  |  |  |  |  | Y | Y | Y (key: Column (c) shows whether there was an increase in the signal:background ratio by over 25% of the control value (Y = yes; N = no) |
| OB(O)c1ccc2cc(O)ccc2c1 [Compound 1006, 6-hydroxy-2-naphthaleneboronic acid] | Y | N | Y (Column (c) shows whether there was an increase in the signal:background ratio by over 25% of the control value (Y = yes) | 5.8 | Y | N | N (N = no) | 1.5 | Y | N | N (N = no) | 0.3 (1.8) |  |  |  |
